Assay results reported in ChEMBL document CHEMBL1145498, “A systematic interaction map of validated kinase inhibitors with Ser/Thr kinases” (Proc Natl Acad Sci U S A, 2007).

Assays:
[1] = target: Calcium/calmodulin-dependent protein kinase type 1D (Homo sapiens) (UniProt Q8IU85)
[2] = target: Calcium/calmodulin-dependent protein kinase type II subunit beta (Homo sapiens) (UniProt Q13554)
[3] = target: Cyclin-dependent kinase 6 (Homo sapiens) (UniProt Q00534)
[4] = target: Dual specificity protein kinase CLK1 (Homo sapiens) (UniProt P49759)
[5] = target: Casein kinase I isoform gamma-2 (Homo sapiens) (UniProt P78368)
[6] = target: Tyrosine-protein kinase JAK1 (Homo sapiens) (UniProt P23458)
[7] = target: T1, Mitogen-activated protein kinase kinase kinase 5 (Homo sapiens) (UniProt Q99683)
T1 sequence (whole entry): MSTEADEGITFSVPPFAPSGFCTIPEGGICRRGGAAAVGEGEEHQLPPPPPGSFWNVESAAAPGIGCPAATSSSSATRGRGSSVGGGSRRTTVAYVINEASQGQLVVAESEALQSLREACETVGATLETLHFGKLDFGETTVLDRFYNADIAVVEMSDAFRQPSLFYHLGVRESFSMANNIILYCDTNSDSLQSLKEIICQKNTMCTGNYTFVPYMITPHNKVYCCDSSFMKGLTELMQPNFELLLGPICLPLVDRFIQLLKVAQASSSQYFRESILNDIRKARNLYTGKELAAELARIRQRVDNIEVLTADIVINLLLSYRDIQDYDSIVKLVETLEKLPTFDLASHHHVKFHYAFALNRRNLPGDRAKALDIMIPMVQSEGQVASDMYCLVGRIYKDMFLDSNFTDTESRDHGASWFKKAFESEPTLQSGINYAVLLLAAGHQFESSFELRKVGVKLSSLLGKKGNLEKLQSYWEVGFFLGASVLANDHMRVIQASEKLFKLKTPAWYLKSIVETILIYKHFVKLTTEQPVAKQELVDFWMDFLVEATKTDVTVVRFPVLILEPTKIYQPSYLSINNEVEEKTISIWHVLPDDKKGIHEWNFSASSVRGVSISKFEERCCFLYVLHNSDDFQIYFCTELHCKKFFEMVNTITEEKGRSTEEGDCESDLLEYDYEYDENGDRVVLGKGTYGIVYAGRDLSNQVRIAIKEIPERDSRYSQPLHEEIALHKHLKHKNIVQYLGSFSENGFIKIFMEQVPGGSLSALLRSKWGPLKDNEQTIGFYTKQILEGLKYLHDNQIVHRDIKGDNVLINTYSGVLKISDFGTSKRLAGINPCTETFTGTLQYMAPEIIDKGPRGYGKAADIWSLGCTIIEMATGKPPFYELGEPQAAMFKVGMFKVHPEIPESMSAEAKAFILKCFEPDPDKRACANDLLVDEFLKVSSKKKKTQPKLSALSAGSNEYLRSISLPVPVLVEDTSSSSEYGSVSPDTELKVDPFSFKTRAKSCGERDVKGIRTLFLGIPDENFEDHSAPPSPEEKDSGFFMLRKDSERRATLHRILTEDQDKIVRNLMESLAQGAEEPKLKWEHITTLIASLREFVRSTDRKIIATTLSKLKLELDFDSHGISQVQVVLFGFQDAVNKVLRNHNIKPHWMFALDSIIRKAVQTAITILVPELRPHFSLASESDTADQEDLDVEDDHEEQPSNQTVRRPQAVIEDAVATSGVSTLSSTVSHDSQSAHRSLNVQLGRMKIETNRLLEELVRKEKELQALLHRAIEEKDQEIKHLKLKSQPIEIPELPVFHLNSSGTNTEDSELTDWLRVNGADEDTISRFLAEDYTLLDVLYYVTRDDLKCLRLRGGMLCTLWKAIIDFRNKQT

[8] = target: Mitogen-activated protein kinase 3 (Homo sapiens, UniProt P27361)
[9] = target: Mitogen-activated protein kinase 6 (Homo sapiens) (UniProt Q16659)
[10] = target: Serine/threonine-protein kinase OSR1 (Homo sapiens) (UniProt O95747)
[11] = target: Serine/threonine-protein kinase PAK 4 (Homo sapiens) (UniProt O96013)
[12] = target: Serine/threonine-protein kinase PAK 5 (Homo sapiens) (UniProt Q9P286)
[13] = target: Cyclin-dependent kinase 16 (Homo sapiens) (UniProt Q00536)
[14] = target: Serine/threonine-protein kinase pim-1 (Homo sapiens) (UniProt P11309)
[15] = target: Ribosomal protein S6 kinase alpha-3 (Homo sapiens) (UniProt P51812)
[16] = target: Serine/threonine-protein kinase 10 (Homo sapiens) (UniProt O94804)
[17] = target: T2, Serine/threonine-protein kinase VRK1 (Homo sapiens) (UniProt Q99986)
T2 sequence (whole entry): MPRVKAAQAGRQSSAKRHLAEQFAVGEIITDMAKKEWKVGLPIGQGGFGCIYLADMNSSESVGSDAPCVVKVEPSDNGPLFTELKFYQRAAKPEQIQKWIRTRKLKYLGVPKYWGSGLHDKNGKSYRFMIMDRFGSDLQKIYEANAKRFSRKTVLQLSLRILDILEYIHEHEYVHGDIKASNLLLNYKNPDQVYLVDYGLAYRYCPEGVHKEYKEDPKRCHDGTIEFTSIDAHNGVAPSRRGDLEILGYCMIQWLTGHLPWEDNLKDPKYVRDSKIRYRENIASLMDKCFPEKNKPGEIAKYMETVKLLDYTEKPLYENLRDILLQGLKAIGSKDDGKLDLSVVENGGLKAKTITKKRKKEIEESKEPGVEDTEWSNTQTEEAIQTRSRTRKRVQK

[18] = target: Serine/threonine-protein kinase VRK2 (Homo sapiens) (UniProt Q86Y07)
Sequence of Serine/threonine-protein kinase VRK2 (Homo sapiens) (Q86Y07 whole entry): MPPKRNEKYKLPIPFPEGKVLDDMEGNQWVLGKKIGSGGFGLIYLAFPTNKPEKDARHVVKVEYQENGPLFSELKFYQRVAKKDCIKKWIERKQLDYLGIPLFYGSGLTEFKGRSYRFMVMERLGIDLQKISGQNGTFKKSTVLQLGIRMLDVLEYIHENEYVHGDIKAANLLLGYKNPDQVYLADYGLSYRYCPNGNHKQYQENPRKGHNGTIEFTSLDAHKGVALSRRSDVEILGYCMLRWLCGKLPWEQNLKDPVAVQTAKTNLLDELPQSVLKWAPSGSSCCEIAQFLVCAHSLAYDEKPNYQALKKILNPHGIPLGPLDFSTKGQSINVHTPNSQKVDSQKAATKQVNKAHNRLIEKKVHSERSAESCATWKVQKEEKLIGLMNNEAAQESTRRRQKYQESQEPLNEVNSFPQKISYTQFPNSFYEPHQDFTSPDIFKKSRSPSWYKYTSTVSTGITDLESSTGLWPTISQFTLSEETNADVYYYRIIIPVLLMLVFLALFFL

Sequence of Serine/threonine-protein kinase PAK 5 (Homo sapiens) (Q9P286 whole entry, looked up): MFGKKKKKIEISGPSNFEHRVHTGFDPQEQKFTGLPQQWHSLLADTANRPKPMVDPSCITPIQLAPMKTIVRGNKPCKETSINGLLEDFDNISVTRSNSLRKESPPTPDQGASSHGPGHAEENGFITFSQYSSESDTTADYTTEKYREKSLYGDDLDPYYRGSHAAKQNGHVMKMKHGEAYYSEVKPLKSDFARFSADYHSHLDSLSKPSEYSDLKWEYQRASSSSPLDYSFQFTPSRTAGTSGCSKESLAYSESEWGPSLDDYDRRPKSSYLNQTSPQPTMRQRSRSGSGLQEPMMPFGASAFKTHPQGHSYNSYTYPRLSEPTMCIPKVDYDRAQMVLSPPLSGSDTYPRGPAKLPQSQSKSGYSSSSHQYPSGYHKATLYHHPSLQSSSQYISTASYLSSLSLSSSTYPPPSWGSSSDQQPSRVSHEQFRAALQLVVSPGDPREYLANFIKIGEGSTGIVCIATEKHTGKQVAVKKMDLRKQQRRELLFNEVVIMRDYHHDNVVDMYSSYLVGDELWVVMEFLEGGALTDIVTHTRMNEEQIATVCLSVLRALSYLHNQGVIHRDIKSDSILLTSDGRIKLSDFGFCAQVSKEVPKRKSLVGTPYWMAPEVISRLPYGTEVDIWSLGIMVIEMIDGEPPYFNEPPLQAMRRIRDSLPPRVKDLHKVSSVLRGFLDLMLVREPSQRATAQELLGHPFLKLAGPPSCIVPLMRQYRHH
Sequence of Calcium/calmodulin-dependent protein kinase type 1D (Homo sapiens) (Q8IU85 whole entry, looked up): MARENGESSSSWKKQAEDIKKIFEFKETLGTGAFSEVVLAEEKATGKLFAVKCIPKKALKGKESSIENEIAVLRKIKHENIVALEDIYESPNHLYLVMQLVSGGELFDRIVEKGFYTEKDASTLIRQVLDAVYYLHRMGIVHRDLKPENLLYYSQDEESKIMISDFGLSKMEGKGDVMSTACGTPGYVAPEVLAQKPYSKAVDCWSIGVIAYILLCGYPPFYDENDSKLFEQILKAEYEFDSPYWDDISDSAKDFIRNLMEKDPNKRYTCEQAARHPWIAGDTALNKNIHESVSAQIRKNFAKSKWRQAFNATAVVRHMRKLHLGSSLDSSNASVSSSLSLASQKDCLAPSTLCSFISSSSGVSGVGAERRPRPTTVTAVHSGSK
Sequence of Tyrosine-protein kinase JAK1 (Homo sapiens) (P23458 whole entry): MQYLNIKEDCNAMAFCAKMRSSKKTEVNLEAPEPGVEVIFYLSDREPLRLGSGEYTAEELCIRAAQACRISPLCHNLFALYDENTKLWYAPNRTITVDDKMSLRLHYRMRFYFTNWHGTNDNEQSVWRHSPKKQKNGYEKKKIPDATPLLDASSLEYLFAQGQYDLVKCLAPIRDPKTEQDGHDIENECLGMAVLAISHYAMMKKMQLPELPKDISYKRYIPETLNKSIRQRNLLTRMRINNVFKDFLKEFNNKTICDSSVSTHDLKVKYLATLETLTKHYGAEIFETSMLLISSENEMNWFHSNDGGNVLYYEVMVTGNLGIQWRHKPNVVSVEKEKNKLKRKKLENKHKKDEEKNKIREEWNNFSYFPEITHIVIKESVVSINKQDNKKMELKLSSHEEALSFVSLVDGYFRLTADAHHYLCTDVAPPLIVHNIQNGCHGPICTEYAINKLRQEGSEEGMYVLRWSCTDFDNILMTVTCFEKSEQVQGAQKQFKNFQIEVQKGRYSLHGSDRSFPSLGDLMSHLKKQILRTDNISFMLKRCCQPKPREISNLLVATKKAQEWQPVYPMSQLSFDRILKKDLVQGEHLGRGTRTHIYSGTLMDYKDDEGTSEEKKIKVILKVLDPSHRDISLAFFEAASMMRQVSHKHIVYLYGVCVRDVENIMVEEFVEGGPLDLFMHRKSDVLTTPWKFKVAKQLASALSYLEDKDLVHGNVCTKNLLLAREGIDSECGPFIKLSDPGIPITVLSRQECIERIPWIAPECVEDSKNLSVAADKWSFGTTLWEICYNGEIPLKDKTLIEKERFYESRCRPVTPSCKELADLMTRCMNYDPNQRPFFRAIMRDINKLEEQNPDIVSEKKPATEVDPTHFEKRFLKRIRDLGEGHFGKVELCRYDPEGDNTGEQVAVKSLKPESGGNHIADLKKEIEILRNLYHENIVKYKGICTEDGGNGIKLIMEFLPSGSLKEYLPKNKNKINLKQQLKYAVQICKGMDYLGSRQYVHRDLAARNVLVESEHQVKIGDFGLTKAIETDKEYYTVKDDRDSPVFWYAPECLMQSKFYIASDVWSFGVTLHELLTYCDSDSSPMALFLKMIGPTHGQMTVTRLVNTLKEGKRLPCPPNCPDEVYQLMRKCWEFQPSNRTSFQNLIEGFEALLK
Sequence of Casein kinase I isoform gamma-2 (Homo sapiens) (P78368 whole entry, looked up, canonical isoform): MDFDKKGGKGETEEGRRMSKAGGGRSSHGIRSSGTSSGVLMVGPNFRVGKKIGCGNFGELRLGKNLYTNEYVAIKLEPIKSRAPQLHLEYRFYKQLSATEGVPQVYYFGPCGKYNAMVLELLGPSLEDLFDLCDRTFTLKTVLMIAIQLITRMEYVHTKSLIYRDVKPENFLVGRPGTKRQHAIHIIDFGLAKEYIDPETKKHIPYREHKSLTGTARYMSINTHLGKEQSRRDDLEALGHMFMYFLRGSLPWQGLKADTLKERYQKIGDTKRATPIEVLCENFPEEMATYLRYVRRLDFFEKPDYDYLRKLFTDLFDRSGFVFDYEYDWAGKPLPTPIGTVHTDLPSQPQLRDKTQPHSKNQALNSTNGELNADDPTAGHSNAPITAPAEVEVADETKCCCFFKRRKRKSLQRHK
Sequence of Serine/threonine-protein kinase 10 (Homo sapiens) (O94804 whole entry, looked up): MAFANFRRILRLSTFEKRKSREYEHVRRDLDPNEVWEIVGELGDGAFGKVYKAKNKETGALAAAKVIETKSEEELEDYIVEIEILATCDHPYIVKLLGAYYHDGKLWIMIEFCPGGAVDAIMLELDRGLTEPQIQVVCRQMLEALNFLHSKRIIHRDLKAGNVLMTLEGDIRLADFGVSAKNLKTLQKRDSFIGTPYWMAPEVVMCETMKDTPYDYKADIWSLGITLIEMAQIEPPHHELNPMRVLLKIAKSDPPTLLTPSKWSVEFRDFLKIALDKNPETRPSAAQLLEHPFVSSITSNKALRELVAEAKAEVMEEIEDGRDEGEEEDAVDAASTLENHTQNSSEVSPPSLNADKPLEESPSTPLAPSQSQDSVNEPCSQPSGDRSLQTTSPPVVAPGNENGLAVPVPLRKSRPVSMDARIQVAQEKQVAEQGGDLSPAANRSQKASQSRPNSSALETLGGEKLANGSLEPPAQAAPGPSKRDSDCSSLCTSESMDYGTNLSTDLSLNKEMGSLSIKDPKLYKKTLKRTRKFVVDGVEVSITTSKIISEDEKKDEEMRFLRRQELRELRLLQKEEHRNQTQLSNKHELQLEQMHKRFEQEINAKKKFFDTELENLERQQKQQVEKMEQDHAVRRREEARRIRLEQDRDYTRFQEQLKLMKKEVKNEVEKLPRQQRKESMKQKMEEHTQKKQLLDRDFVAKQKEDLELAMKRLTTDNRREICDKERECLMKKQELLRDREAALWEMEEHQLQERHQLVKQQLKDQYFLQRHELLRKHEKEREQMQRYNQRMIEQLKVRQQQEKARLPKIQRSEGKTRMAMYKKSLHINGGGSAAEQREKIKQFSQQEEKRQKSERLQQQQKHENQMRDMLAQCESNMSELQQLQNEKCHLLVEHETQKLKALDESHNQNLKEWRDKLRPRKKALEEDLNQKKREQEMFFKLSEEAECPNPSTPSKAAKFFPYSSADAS
Sequence of Ribosomal protein S6 kinase alpha-3 (Homo sapiens) (P51812 whole entry): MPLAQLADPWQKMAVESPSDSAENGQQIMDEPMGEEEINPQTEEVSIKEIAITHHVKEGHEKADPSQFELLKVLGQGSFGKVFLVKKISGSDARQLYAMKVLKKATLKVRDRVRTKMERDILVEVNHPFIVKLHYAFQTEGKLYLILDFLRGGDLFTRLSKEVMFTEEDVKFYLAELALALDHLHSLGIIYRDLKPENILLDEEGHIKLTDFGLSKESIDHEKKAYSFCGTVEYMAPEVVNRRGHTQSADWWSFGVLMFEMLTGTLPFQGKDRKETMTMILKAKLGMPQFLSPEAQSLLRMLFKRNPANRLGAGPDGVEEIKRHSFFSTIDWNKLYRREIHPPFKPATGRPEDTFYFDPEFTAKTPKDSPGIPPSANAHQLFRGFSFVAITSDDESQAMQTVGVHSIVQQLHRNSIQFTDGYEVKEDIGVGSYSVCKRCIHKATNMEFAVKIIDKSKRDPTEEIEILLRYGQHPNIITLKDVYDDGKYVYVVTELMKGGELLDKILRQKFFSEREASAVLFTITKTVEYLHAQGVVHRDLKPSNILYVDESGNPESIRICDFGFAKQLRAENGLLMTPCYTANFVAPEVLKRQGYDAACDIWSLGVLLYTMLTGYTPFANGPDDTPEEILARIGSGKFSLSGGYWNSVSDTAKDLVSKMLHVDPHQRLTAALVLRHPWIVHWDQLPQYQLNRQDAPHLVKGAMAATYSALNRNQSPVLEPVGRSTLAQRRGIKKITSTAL

| SMILES | ΔTm [1] | ΔTm [2] | ΔTm [3] | ΔTm [4] | ΔTm [5] | ΔTm [6] | ΔTm [7] | ΔTm [8] | ΔTm [9] | ΔTm [10] | ΔTm [11] | ΔTm [12] | ΔTm [13] | ΔTm [14] | ΔTm [15] | ΔTm [16] | ΔTm [17] | ΔTm [18] |
| --- | --- | --- | --- | --- | --- | --- | --- | --- | --- | --- | --- | --- | --- | --- | --- | --- | --- | --- |
| C[S+]([O-])c1ccc(-c2nc(-c3ccc(F)cc3)c(-c3ccncc3)[nH]2)cc1 (stereo unspecified) [SB-203580] | -0.2 °C | 0 °C | -0.1 °C | -0.3 °C | 0.7 °C | 2.3 °C | 0.3 °C | 0.1 °C | 0 °C | -0.2 °C | 0.1 °C | -0.1 °C | -0.8 °C | -2.1 °C | -0.2 °C | 2.7 °C | -0.1 °C | 0.6 °C |
| O=C(O)c1cc(N(Cc2ccccc2O)Cc2cc(O)ccc2O)ccc1O [LAVENDUSTIN A] | 0.1 °C | -0.1 °C | 0.4 °C | 0.5 °C | 0.6 °C | 0.4 °C | 0.2 °C | 0.3 °C | 0.8 °C | -0.1 °C | 0.1 °C | -0.5 °C | 0 °C | 1.1 °C | 1.7 °C | 0.1 °C | 0.3 °C | -0.6 °C |
| COc1cc(OC)c(/C=C2\C(=O)Nc3ccccc32)c(OC)c1 | -0.2 °C | 0.1 °C | 0.3 °C | 0.1 °C | 0.7 °C | 0.5 °C | 0 °C | 0 °C | -0.2 °C | 0.2 °C | 0.1 °C | -0.3 °C | -0.7 °C | -1 °C | 0.1 °C | 0.8 °C | 0.6 °C | 2.2 °C |
| N#C/C(=C(/N)Sc1ccc(N)cc1)c1ccccc1C(F)(F)F | 0.3 °C | 0.5 °C | 0.3 °C | 0.1 °C | 0.3 °C | -5 °C | -0.1 °C | -0.1 °C | 0.4 °C | 0.5 °C | 1.3 °C | 0.6 °C | 0 °C | -0.2 °C | -0.1 °C | 0.4 °C | 0.4 °C | 0.1 °C |
| C=CNC#N | 0.7 °C | 1.2 °C | 0.1 °C | 0.8 °C | 0.1 °C | -0.9 °C | 0.4 °C | -0.6 °C | 1 °C | 0 °C | 1.8 °C | 0.5 °C | 0.4 °C | 0.1 °C | 1 °C | -0.3 °C | 1 °C | 0.2 °C |
| Cc1cc(Nc2nc(-c3ccccc3)nc3ccccc23)n[nH]1 | 3.5 °C | 0.6 °C | 1.9 °C | 5.8 °C | 3.3 °C | 12.2 °C | 0.9 °C | 0.1 °C | 0.2 °C | 2.9 °C | 5.9 °C | 5.2 °C | 1.4 °C | 1.7 °C | 6.4 °C | 11.1 °C | 0.8 °C | 0.4 °C |
| CN(C)S(=O)(=O)c1ccc2c(c1)/C(=C/c1cc3c([nH]1)CCCC3)C(=O)N2 | 1.4 °C | 2.3 °C | -0.9 °C | 4.3 °C | 0.1 °C | 3.6 °C | 1.2 °C | 0.8 °C | 0.6 °C | 2.2 °C | 1.3 °C | 0.4 °C | 0.1 °C | 0.5 °C | -0.1 °C | 7.7 °C | 0.3 °C | 0.4 °C |
| N#CC(C#N)=Cc1ccc(O)c(O)c1 [TYRPHOSTIN 23] | 0.2 °C | 0.1 °C | 0.2 °C | 0.7 °C | 0.4 °C | 0.1 °C | 0.1 °C | 0.3 °C | 0.1 °C | 0.8 °C | -0.1 °C | 0.5 °C | -0.7 °C | 1.5 °C | 2.7 °C | 0.5 °C | 0.1 °C | 0.2 °C |
| CC(C)(C)n1nc(-c2cccc3ccccc23)c2c(N)ncnc21 | -0.3 °C | 0.2 °C | -0.3 °C | 1.1 °C | 0.5 °C | -0.1 °C | 0.8 °C | 0.8 °C | 0 °C | 1.1 °C | 1.2 °C | 1 °C | -0.4 °C | -0.2 °C | 0.3 °C | 4 °C | 0.7 °C | 2.8 °C |
| COc1ccc2c(c[n+](C)c3c4cc5c(cc4ccc23)OCO5)c1OC [CHELERYTHRINE CHLORIDE] | -5.3 °C | 0.1 °C | -1 °C | -4.4 °C | -0.2 °C | 0.3 °C | -0.2 °C | -0.5 °C | -0.3 °C | -2.6 °C | -3.8 °C | -1.7 °C | -0.2 °C | -4.4 °C | -0.3 °C | -1.1 °C | -0.1 °C | 0 °C |
| Cc1ccc(NC(=O)c2cccc(N(C)C)c2)cc1NC(=O)c1ccc(O)cc1 | 0.3 °C | 0.4 °C | -0.4 °C | -0.2 °C | 0.2 °C | 0.1 °C | -0.4 °C | 0.2 °C | 0.4 °C | 2 °C | 0.4 °C | 0.6 °C | 0.3 °C | -0.3 °C | -0.1 °C | 0.1 °C | -0.3 °C | 0.2 °C |
| O=C1NC(=O)C(c2cn(CCCn3ccnc3)c3ccccc23)=C1Nc1ccccc1 | 0.2 °C | 0.7 °C | 0.9 °C | 5.8 °C | 1 °C | 1.1 °C | 0.6 °C | -0.1 °C | 0.6 °C | 0.2 °C | 0.7 °C | 0.1 °C | 0.6 °C | 3.1 °C | 6.3 °C | 2 °C | 0.6 °C | 0.4 °C |
